Measurements from ChEMBL document CHEMBL1129160, “Non thiazolidinedione antihyperglycaemic agents. 2: -Carbon substituted -phenylpropanoic acids1” (Bioorg Med Chem Lett, 1996).
pKi: −log10 of the molar value.

Key:
Mus musculus = assay: In vivo anti-hyperglycaemic activity in mice.; format: functional
[1] = target: T1, Peroxisome proliferator-activated receptor gamma (Homo sapiens, UniProt P37231)
T1 sequence (P37231 whole entry): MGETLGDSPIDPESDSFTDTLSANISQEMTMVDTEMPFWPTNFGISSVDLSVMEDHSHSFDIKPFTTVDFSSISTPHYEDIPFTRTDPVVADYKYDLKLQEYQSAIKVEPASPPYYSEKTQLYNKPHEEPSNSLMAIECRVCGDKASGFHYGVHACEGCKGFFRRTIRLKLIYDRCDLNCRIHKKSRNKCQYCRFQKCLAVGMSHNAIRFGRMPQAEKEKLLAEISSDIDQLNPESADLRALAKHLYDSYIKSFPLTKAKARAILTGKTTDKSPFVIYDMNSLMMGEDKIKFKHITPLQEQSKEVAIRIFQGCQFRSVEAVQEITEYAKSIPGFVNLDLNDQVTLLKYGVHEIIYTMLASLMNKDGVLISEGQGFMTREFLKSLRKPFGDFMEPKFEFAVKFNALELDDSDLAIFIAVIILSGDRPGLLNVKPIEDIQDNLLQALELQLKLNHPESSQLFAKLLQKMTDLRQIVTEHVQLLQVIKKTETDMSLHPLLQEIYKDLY

[2] = target: T1, Peroxisome proliferator-activated receptor gamma; assay: Inhibition of [125I]SB 236636 binding to human PPAR gamma receptor

pKi [2] | Compound | ED25 (Mus musculus) [µM/kg] | pKi [1]
– | CN(CCOc1ccc(CC(C#N)C(=O)O)cc1)c1nc2ccccc2o1 (centres undefined) | 10 | –
– | CCCC(Cc1ccc(OCCN(C)c2nc3ccccc3o2)cc1)C(=O)O (centres undefined) | 10 | –
– | CCOC(Cc1ccc(OCCN(C)c2nc3ccccc3o2)cc1)C(=O)O (centres undefined) | 0.1 | –
– | CCOC(=O)C(Cc1ccc(OCCN(C)c2nc3ccccc3o2)cc1)C(=O)c1ccccc1 (centres undefined) | >1000 | –
– | CN(CCOc1ccc(CC(CCCCc2ccccc2)C(=O)O)cc1)c1nc2ccccc2o1 (centres undefined) | 100 | –
– | CN(CCOc1ccc(CC(CCCCCc2ccccc2)C(=O)O)cc1)c1nc2ccccc2o1 (centres undefined) | 3 | –
– | CN(CCOc1ccc(CC(CCOc2ccccc2)C(=O)O)cc1)c1nc2ccccc2o1 (centres undefined) | 30 | –
– | CN(CCOc1ccc(CC2SC(=O)NC2=O)cc1)c1nc2ccccc2o1 (centres undefined) [BRL-48482] | 3 | –
– | COCC(Cc1ccc(OCCN(C)c2nc3ccccc3o2)cc1)C(=O)O (centres undefined) | 30 | –
– | COC(=O)C(CCc1ccccc1)Cc1ccc(OCCN(C)c2nc3ccccc3o2)cc1 (centres undefined) | 100 | –
– | CCCCCCC(Cc1ccc(OCCN(C)c2nc3ccccc3o2)cc1)C(=O)O (centres undefined) | 10 | –
– | Cc1c(C)c2c(c(C)c1O)CCC(C)(COc1ccc(CC3SC(=O)NC3=O)cc1)O2 (centres undefined) [TROGLITAZONE] | 400 | –
– | CC(C)CCC(Cc1ccc(OCCN(C)c2nc3ccccc3o2)cc1)C(=O)O (centres undefined) | 100 | –
– | COC(=O)C(Cc1ccc(OCCN(C)c2nc3ccccc3o2)cc1)C(=O)OC | 10 | –
– | CCC(Cc1ccc(OCCN(C)c2nc3ccccc3o2)cc1)C(=O)O (centres undefined) | 30 | –
– | CN(CCOc1ccc(CC(C/C=C/c2ccccc2)C(=O)O)cc1)c1nc2ccccc2o1 (centres undefined) | 30 | –
– | CN(CCOc1ccc(CC(CCCc2ccccc2)C(=O)O)cc1)c1nc2ccccc2o1 (centres undefined) | 3 | 7.52
– | COC(=O)C(Cc1ccccc1)Cc1ccc(OCCN(C)c2nc3ccccc3o2)cc1 (centres undefined) | 300 | –
– | C=CCC(Cc1ccc(OCCN(C)c2nc3ccccc3o2)cc1)C(=O)O (centres undefined) | 30 | –
5.82 | CC(Cc1ccc(OCCN(C)c2nc3ccccc3o2)cc1)C(=O)O (centres undefined) | 1000 | –
– | CN(CCOc1ccc(CC(C(=O)O)c2ccccc2)cc1)c1nc2ccccc2o1 (centres undefined) | 30 | –
– | COC(=O)C(Cc1ccc(OCCN(C)c2nc3ccccc3o2)cc1)C(C)=O (centres undefined) | 300 | –
